Test systems include RXF 393 renal; SNB-75 CNS; MCF7 breast; KM12 colon; OVCAR-5 ovarian; SF-268 CNS; U251 CNS; HT29 colon; MALME-3M melanoma; TK-10 renal.
Holding throughout (assay): NCI-60 cell line screen, 48 h

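Growth conditions: 96-well plates. Treatment: test compound, 48 hours, 5 concentrations. Analysis: linear interpolation between bracketing concentrations; unreached endpoints set to highest concentration. The concentration for 50% growth inhibition is given as GI50. TGI is the concentration that stops growth completely.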

The text below walks through data of PubChem BioAssay (NCI).

For the compound `Cc1[nH]c(-c2nc3ccccc3[nH]2)c(C)c1C(=O)NC(C)C1CCCCC1` (stereo not given), the GI50 with RXF 393 renal was 3.17 µM; in the experiment with SNB-75 CNS, 3.62 µM; with MCF7 breast it was 4.01 µM; in the experiment with KM12 colon, 10.2 µM; in the experiment on OVCAR-5 ovarian, 15 µM; with SF-268 CNS, 11.9 µM. Also, the GI50 is 5.58 µM with U251 CNS, 4.89 µM with HT29 colon, 5.68 µM with MALME-3M melanoma and 21.5 µM in the experiment on TK-10 renal. Also, the TGI in the experiment on RXF 393 renal was determined as 11 µM; with SNB-75 CNS it was 16.4 µM; in the experiment on MCF7 breast, 19.2 µM; in the experiment on KM12 colon, 22.8 µM; with OVCAR-5 ovarian, 29.2 µM; in the experiment with SF-268 CNS, 30.9 µM. The TGI with U251 CNS turned out to be 25.1 µM; in the experiment on HT29 colon, 38.2 µM; with MALME-3M melanoma, 22.5 µM; with TK-10 renal it was 41.6 µM.
As for `C/C(=N\N=C(\[Se])N(C)C)c1ccccn1`, the TGI with RXF 393 renal came to 6.23 µM; with SNB-75 CNS it was 15.5 µM; in the experiment with MCF7 breast, 8.15 µM; in the experiment with KM12 colon, 17.9 µM; in the experiment with OVCAR-5 ovarian, 7.31 µM; with SF-268 CNS, 25.6 µM. Further, the TGI in the experiment on U251 CNS came to 8.65 µM; in the experiment with HT29 colon it was 14.2 µM; in the experiment on MALME-3M melanoma, 9.35 µM; in the experiment on TK-10 renal, 18.1 µM.
On to `CCN(CC)CCN(Cc1ccc(F)cc1)c1ccc(CO)c(Cl)c1`, for which the GI50 is 31.2 µM in the experiment with RXF 393 renal; 12.2 µM in the experiment on SNB-75 CNS; 4.55 µM in the experiment on MCF7 breast; 18.8 µM in the experiment with KM12 colon; 3.25 µM with OVCAR-5 ovarian; 76.5 µM in the experiment with SF-268 CNS. Further, the GI50 in the experiment on U251 CNS is 22.8 µM; in the experiment with HT29 colon, 18.6 µM; in the experiment on MALME-3M melanoma, 19.5 µM; in the experiment on TK-10 renal it was 4.86 µM. Also, the TGI in the experiment with RXF 393 renal was greater than 69.3 µM; in the experiment with SNB-75 CNS, greater than 94.8 µM; in the experiment on MCF7 breast, 85.5 µM; with KM12 colon it was 75.9 µM; in the experiment with OVCAR-5 ovarian, 12.4 µM; in the experiment with SF-268 CNS it was greater than 100 µM. Besides, the TGI with U251 CNS was greater than 100 µM; in the experiment with HT29 colon it was 69.4 µM; in the experiment on MALME-3M melanoma, 37.3 µM; in the experiment with TK-10 renal, 22.2 µM.
With `COc1ccc2c(Cl)cc(NC(=O)Nc3c(C)cccc3C)nc2c1`, the GI50 in the experiment with RXF 393 renal is 4.97 µM; in the experiment on SNB-75 CNS, 1.47 µM; in the experiment on MCF7 breast it was 56 µM; in the experiment with KM12 colon it was 35.7 µM; in the experiment on OVCAR-5 ovarian it was greater than 100 µM; in the experiment with SF-268 CNS, 39.7 µM. The GI50 was 13.7 µM with U251 CNS, 33.9 µM in the experiment on HT29 colon, 10.2 µM in the experiment with MALME-3M melanoma and 11.2 µM in the experiment with TK-10 renal. The TGI was 24.8 µM in the experiment on RXF 393 renal; 6.01 µM with SNB-75 CNS; greater than 100 µM in the experiment with MCF7 breast; greater than 100 µM in the experiment with KM12 colon; greater than 100 µM in the experiment on OVCAR-5 ovarian; greater than 100 µM with SF-268 CNS. Further, the TGI with U251 CNS was 39.2 µM; with HT29 colon, greater than 100 µM; in the experiment on MALME-3M melanoma, 58.5 µM; with TK-10 renal it was 58.2 µM.
Regarding `COc1cccc2c1C(=O)c1c(O)c3c(c(O)c1C2=O)C[C@@](O)(C(=O)CO)CC3OC1CC(O)C(O)C(C)O1` (stereo not given in full), the TGI was 0.957 µM in the experiment on RXF 393 renal; 1.08 µM with SNB-75 CNS; 21.6 µM in the experiment on MCF7 breast; 7.49 µM in the experiment with KM12 colon; 3.66 µM with OVCAR-5 ovarian; 1.81 µM in the experiment on SF-268 CNS. Besides, the TGI with U251 CNS was found to be 13.9 µM; in the experiment with HT29 colon it was 4.25 µM; with MALME-3M melanoma, 0.806 µM; with TK-10 renal, 11.6 µM.
For the compound `CCCCCCCCCCCCCCCC(=O)OCC1OC(OC)C2NP(=O)(N(CCCl)CCCl)OC1C2O` (stereo not given), the TGI with RXF 393 renal was found to be 3.99 µM; in the experiment on SNB-75 CNS, 15.2 µM; in the experiment with MCF7 breast, 20.5 µM; in the experiment with KM12 colon, 41.9 µM; in the experiment on OVCAR-5 ovarian, 59.2 µM; in the experiment on SF-268 CNS, 14.8 µM. The TGI is greater than 19.5 µM in the experiment with U251 CNS, greater than 66.8 µM with HT29 colon, 34.1 µM with MALME-3M melanoma and 31.7 µM with TK-10 renal.
As to `Cc1cc2nc3cc(C)c(N)cc3[n+](-c3ccccc3)c2cc1N`, the GI50 in the experiment on RXF 393 renal is 17.5 µM; in the experiment with SNB-75 CNS, 2.59 µM; in the experiment with MCF7 breast, 2.48 µM; with KM12 colon it was 2.07 µM; in the experiment with OVCAR-5 ovarian it was 46.3 µM; in the experiment with SF-268 CNS it was 2.23 µM. Further, the GI50 in the experiment with U251 CNS is 0.945 µM; in the experiment with HT29 colon it was 7.3 µM; with MALME-3M melanoma, 3.98 µM; in the experiment on TK-10 renal, 36.6 µM. Further, the TGI with RXF 393 renal is greater than 100 µM; with SNB-75 CNS it was greater than 100 µM; with MCF7 breast, greater than 100 µM; with KM12 colon, 17.6 µM; in the experiment with OVCAR-5 ovarian, greater than 100 µM; with SF-268 CNS it was greater than 100 µM. The TGI with U251 CNS was greater than 100 µM; in the experiment on HT29 colon it was greater than 100 µM; with MALME-3M melanoma, 51.1 µM; in the experiment with TK-10 renal, greater than 100 µM.
With `CCOC(=O)c1c(C)nc2c(c1N)CC(=O)N2CCc1ccccc1`, the GI50 is 4.05 µM in the experiment on RXF 393 renal; 1.37 µM in the experiment on SNB-75 CNS; 0.306 µM in the experiment with MCF7 breast; 0.35 µM with KM12 colon; 8.2 µM in the experiment on OVCAR-5 ovarian; 0.477 µM in the experiment with SF-268 CNS. Moreover, the GI50 in the experiment with U251 CNS is 0.997 µM; in the experiment with HT29 colon, 0.327 µM; with MALME-3M melanoma, 1.31 µM; with TK-10 renal, 0.596 µM. Further, the TGI turned out to be 15.3 µM in the experiment with RXF 393 renal; 18.1 µM in the experiment with SNB-75 CNS; 17.1 µM with MCF7 breast; 15.5 µM in the experiment with KM12 colon; 24.9 µM with OVCAR-5 ovarian; 19 µM in the experiment on SF-268 CNS. Moreover, the TGI with U251 CNS was 18.4 µM; in the experiment on HT29 colon, 14.5 µM; in the experiment with MALME-3M melanoma, 4.9 µM; in the experiment on TK-10 renal it was 15 µM.
On to `CN1CCN(Cc2ccc(NC(=O)c3cncc(C#Cc4cncc5nccnc45)c3)cc2C(F)(F)F)CC1`, for which the GI50 in the experiment on RXF 393 renal was 2.21 µM; in the experiment with SNB-75 CNS it was 5.04 µM; in the experiment with MCF7 breast it was 2.35 µM; with KM12 colon it was 0.136 µM; in the experiment on OVCAR-5 ovarian it was 2.15 µM; with SF-268 CNS, 5.22 µM. Moreover, the GI50 in the experiment on U251 CNS was 5.67 µM; in the experiment with HT29 colon it was 0.914 µM; in the experiment on MALME-3M melanoma, 0.231 µM; in the experiment with TK-10 renal, 5.34 µM. For the same compound, the TGI in the experiment with RXF 393 renal came to 7.47 µM; with SNB-75 CNS, 11.5 µM; in the experiment on MCF7 breast, 10.1 µM; in the experiment on KM12 colon, 6.88 µM; with OVCAR-5 ovarian, 32.8 µM; in the experiment with SF-268 CNS it was 16.6 µM. In addition, the TGI was 13 µM in the experiment on U251 CNS, 7.87 µM with HT29 colon, 1.3 µM in the experiment on MALME-3M melanoma and 12.8 µM in the experiment with TK-10 renal.
On to `Cc1cc(C(=O)O)c(C)n1-c1cccc(C(=O)O)c1`, for which the GI50 in the experiment on RXF 393 renal, in the experiment on SNB-75 CNS, in the experiment with MCF7 breast, with KM12 colon, in the experiment with OVCAR-5 ovarian and in the experiment with SF-268 CNS was greater than 100 µM throughout. For the same compound, the GI50 with U251 CNS, in the experiment with HT29 colon, in the experiment on MALME-3M melanoma and in the experiment on TK-10 renal was greater than 100 µM throughout. Also, the TGI in the experiment on RXF 393 renal, in the experiment on SNB-75 CNS, in the experiment with MCF7 breast, in the experiment on KM12 colon, with OVCAR-5 ovarian and with SF-268 CNS was greater than 100 µM throughout. Also, the TGI in the experiment on U251 CNS, in the experiment with HT29 colon, in the experiment on MALME-3M melanoma and in the experiment on TK-10 renal was greater than 100 µM each time.
For `COC(=O)C(CBr)CBr`, the TGI was found to be 4.86 µM with RXF 393 renal; 31.4 µM in the experiment with SNB-75 CNS; 20.6 µM in the experiment with MCF7 breast; 24.3 µM with KM12 colon; 31.2 µM in the experiment with OVCAR-5 ovarian; 41.9 µM in the experiment on SF-268 CNS. Also, the TGI in the experiment with U251 CNS came to 10.3 µM; in the experiment with HT29 colon, 11 µM; in the experiment with MALME-3M melanoma, 4.93 µM; in the experiment with TK-10 renal, 10.8 µM.
`CC1(C)C(=O)/C=C\C(=O)C(C)(C)C(=O)/C=C\C(=O)C(C)(C)C(=O)/C=C\C(=O)C(C)(C)C(=O)/C=C\C1=O`: the TGI in the experiment with RXF 393 renal was 34.1 µM; in the experiment with SNB-75 CNS, 99.4 µM; in the experiment with MCF7 breast it was greater than 100 µM; with KM12 colon, greater than 72.8 µM; with OVCAR-5 ovarian, 69.7 µM; in the experiment on SF-268 CNS, greater than 69.3 µM. Besides, the TGI in the experiment on U251 CNS is 64.3 µM; with HT29 colon, 37.3 µM; with MALME-3M melanoma, 33.1 µM; in the experiment on TK-10 renal, greater than 68.6 µM.
Take `CCC(=O)Nc1ccccc1C#C/C=C\C#Cc1ccccc1C(F)(F)F`: the GI50 in the experiment with RXF 393 renal was 2.84 µM; with SNB-75 CNS, 0.884 µM; with MCF7 breast, 2.61 µM; in the experiment with KM12 colon, 2.02 µM; in the experiment on OVCAR-5 ovarian it was 3.2 µM; with SF-268 CNS, 3.21 µM. Besides, the GI50 in the experiment with U251 CNS is 2.42 µM; in the experiment on HT29 colon it was 5.94 µM; in the experiment on MALME-3M melanoma it was 7.54 µM; in the experiment with TK-10 renal, 4.46 µM. The TGI with RXF 393 renal is greater than 12.7 µM; with SNB-75 CNS it was 5.85 µM; with MCF7 breast, greater than 36.1 µM; in the experiment with KM12 colon, greater than 26.5 µM; in the experiment with OVCAR-5 ovarian it was greater than 37 µM; in the experiment with SF-268 CNS it was 35.3 µM. Besides, the TGI with U251 CNS is greater than 40.7 µM; in the experiment on HT29 colon it was greater than 50 µM; in the experiment on MALME-3M melanoma it was greater than 50 µM; with TK-10 renal, greater than 50 µM.
